In patent US20070027150A1 (priority 2005, published 2007):

Target: His-tagged N-terminal ATP binding domain (amino acid residues 9-236) of HSP90α (Homo sapiens, UniProt P07900)
Assay: HSP90 inhibitor binding potency: TRF competition binding assay
Conditions: Table I; read-out: Hsp90 IC50 Range
Experimental: HSP90 Inhibitor Binding Potency: TRF Binding Assay
In this example, the binding potency of HSP90 inhibitors as measured by a TRF binding assay is described.
TRF competition binding assays were performed to determine the binding potency (IC50 values) of HSP90 inhibitors. Purified His-tagged N-terminal ATP binding domain (amino acid residues 9-236) of HSP90α (HSP90α GeneID: 3320; mRNA Sequence NM_005348) was incubated for two hours at room temperature in binding buffer (50 mM HEPES, 6 mM MgCl2, 20 mM KCl and 0.1% BSA) with biotinylated radicicol and progressively higher concentrations of the competing compounds. A fraction of the mixture was transferred to capture plates (coated with streptavidin) and incubated for one hour at room temperature. After washing with DELFIA wash buffer, europium-labeled anti-his antibody was added and incubated for two hours at room temperature, followed by washing with DELFIA buffer. DELFIA enhancement solution was then added. After gentle shaking for 10 minutes, the plates were read in VICTOR for europium counts.

IC50	SMILES
> 10000 nM	Cc1nc(N)nc2c1C(=O)CC(C(C)C)C2 (stereo not drawn) [Compound 1, 2-amino-7-isopropyl-4-methyl-7,8-dihydroquinazolin-5(6H)-one]
1000 to 10000 nM	Cc1nc(N)nc2c1C(=O)CC(c1ccccc1Br)C2 (stereo not drawn) [Compound 8, 2-amino-7-(2-bromophenyl)-4-methyl-7,8-dihydroquinazolin-5(6H)-one]
< 1000 nM	Cc1nc(N)nc2c1C(=O)CC(c1ccccc1N1CCCCC1)C2 (stereo not drawn) [Compound 12, 2-amino-4-methyl-7-(2-piperidin-1-yl-phenyl)-7,8-dihydro-6H-quinazolin-5-one]
< 1000 nM	Cc1nc(N)nc2c1C(=O)CC(c1ccc(F)cc1Br)C2 (stereo not drawn) [Compound 16, 2-amino-7-(2-bromo-4-fluoro-phenyl)-4-methyl-7,8-dihydro-6H-quinazolin-5-one]
1000 to 10000 nM	Cc1cccc(C2CC(=O)c3c(C)nc(N)nc3C2)c1-c1cccnc1F (stereo not drawn) [Compound 19, 2-amino-7-[2-(2-fluoropyridin-3-yl)-3-methylphenyl]-4-methyl-7,8-dihydroquinazolin-5(6H)-one]
> 10000 nM	COc1cccc(C2CCCCC2)c1C1CC(=O)c2c(C)nc(N)nc2C1 (stereo not drawn) [Compound 20, 2-amino-7-(2-cyclohexyl-6-methoxyphenyl)-4-methyl-7,8-dihydroquinazolin-5(6H)-one]
< 1000 nM	Cc1cnc(Oc2ccccc2C2CC(=O)c3c(C)nc(N)nc3C2)s1 (stereo not drawn) [Compound 21, 2-amino-4-methyl-7-[2-(5-methyl-thiazol-2-yloxy)-phenyl]-7,8-dihydro-6H-quinazolin-5-one]
1000 to 10000 nM	Cc1nc(N)nc2c1C(=O)CC(c1ccccc1-c1ccncc1)C2 (stereo not drawn) [Compound 27, 2-amino-4-methyl-7-(2-pyridin-4-ylphenyl)-7,8-dihydroquinazolin-5(6H)-one]
> 10000 nM	Cc1nc(N)nc2c1C(=O)CC(c1cccc(-c3ccccn3)c1)C2 (stereo not drawn) [Compound 28, 2-amino-4-methyl-7-(3-pyridin-2-ylphenyl)-7,8-dihydroquinazolin-5(6H)-one]
< 1000 nM	Cc1nc(N)nc2c1C(=O)CC(c1ccccc1-c1cnccn1)C2 (stereo not drawn) [Compound 31, 2-amino-4-methyl-7-(2-pyrazin-2-ylphenyl)-7,8-dihydroquinazolin-5(6H)-one]
< 1000 nM	Cc1nc(N)nc2c1C(=O)CC(c1ccccc1-c1ncccn1)C2 (stereo not drawn) [Compound 32, 2-amino-4-methyl-7-(2-pyrimidin-2-ylphenyl)-7,8-dihydroquinazolin-5(6H)-one]
1000 to 10000 nM	Cc1nc(N)nc2c1C(=O)CC(c1cccnc1-c1ccccn1)C2 (stereo not drawn) [Compound 33, 2-amino-7-(2,2′-bipyridin-3-yl)-4-methyl-7,8-dihydroquinazolin-5(6H)-one]
< 1000 nM	Cc1nc(N)nc2c1C(=O)CC(c1c(-c3ccccn3)cccc1-c1ccccn1)C2 (stereo not drawn) [Compound 38, 2-amino-7-(2,6-dipyridin-2-ylphenyl)-4-methyl-7,8-dihydroquinazolin-5(6H)-one]
< 1000 nM	Cc1nc(N)nc2c1C(=O)CC(c1ccccc1-c1ccccc1)C2 (stereo not drawn) [Compound 41, 2-amino-7-(1,1′-biphenyl-2-yl)-4-methyl-7,8-dihydroquinazolin-5(6H)-one]

The remaining lines, values behind:

SMILES	IC50
COc1ccc(C2CC(=O)c3c(C)nc(N)nc3C2)cc1 (stereo not drawn) [Compound 2, 2-amino-7-(4-methoxyphenyl)-4-methyl-7,8-dihydroquinazolin-5(6H)-one]	1000 to 10000 nM
Cc1nc(N)nc2c1C(=O)CC(c1ccc(Cl)cc1)C2 (stereo not drawn) [Compound 3, 2-amino-7-(4-chlorophenyl)-4-methyl-7,8-dihydroquinazolin-5(6H)-one]	< 1000 nM
Cc1nc(N)nc2c1C(=O)CC(c1cccnc1Cl)C2 (stereo not drawn) [Compound 4, 2-amino-7-(2-chloropyridin-3-yl)-4-methyl-7,8-dihydroquinazolin-5(6H)-one]	> 10000 nM
COc1cccc(Cl)c1C1CC(=O)c2c(C)nc(N)nc2C1 (stereo not drawn) [Compound 5, 2-amino-7-(2-chloro-6-methoxy-phenyl)-4-methyl-7,8-dihydro-6H-quinazolin-5-one]	1000 to 10000 nM
Cc1nc(N)nc2c1C(=O)CC(c1ccc(Cl)cc1Cl)C2 (stereo not drawn) [Compound 6, 2-amino-7-(2,4-dichlorophenyl)-4-methyl-7,8-dihydroquinazolin-5(6H)-one]	1000 to 10000 nM
Cc1nc(N)nc2c1C(=O)CC(c1cccc(Br)c1)C2 (stereo not drawn) [Compound 7, 2-amino-7-(3-bromophenyl)-4-methyl-7,8-dihydroquinazolin-5(6H)-one]	1000 to 10000 nM
Cc1nc(N)nc2c1C(=O)CC(c1nccn1Cc1ccccc1)C2 (stereo not drawn) [Compound 9, 2-amino-7-(1-benzyl-1H-imidazol-2-yl)-4-methyl-7,8-dihydro-6H-quinazolin-5-one]	< 1000 nM
Cc1nc(N)nc2c1C(=O)CC(c1c(Br)cnn1C)C2 (stereo not drawn) [Compound 10, 2-amino-7-(4-bromo-2-methyl-2H-pyrazol-3-yl)-4-methyl-7,8-dihydro-6H-quinazolin-5-one]	> 10000 nM
Cc1nc(N)nc2c1C(=O)CC(c1nn(C)cc1Br)C2 (stereo not drawn) [Compound 11, 2-amino-7-(4-bromo-1-methyl-1H-pyrazol-3-yl)-4-methyl-7,8-dihydro-6H-quinazolin-5-one]	> 10000 nM
Cc1nc(N)nc2c1C(=O)CC(c1ccccc1N1CCOCC1)C2 (stereo not drawn) [Compound 13, 2-amino-4-methyl-7-(2-morpholin-4-yl-phenyl)-7,8-dihydro-6H-quinazolin-5-one]	< 1000 nM
Cc1nc(N)nc2c1C(=O)CC(c1ccccc1Cc1ccccc1)C2 (stereo not drawn) [Compound 14, 2-amino-7-(2-benzyl-phenyl)-4-methyl-7,8-dihydro-6H-quinazolin-5-one]	< 1000 nM
Cc1cccc(C2CC(=O)c3c(C)nc(N)nc3C2)c1-c1ccccc1 (stereo not drawn) [Compound 15, 2-amino-4-methyl-7-(6-methyl-1,1′-biphenyl-2-yl)-7,8-dihydroquinazolin-5(6H)-one]	1000 to 10000 nM
Cc1nc(N)nc2c1C(=O)CC(c1ccccc1OC1CCCCC1)C2 (stereo not drawn) [Compound 17, 2-amino-7-[2-(cyclohexyloxy)phenyl]-4-methyl-7,8-dihydroquinazolin-5(6H)-one]	< 1000 nM
COc1cccc(Br)c1C1CC(=O)c2c(C)nc(N)nc2C1 (stereo not drawn) [Compound 18, 2-amino-7-(2-bromo-6-methoxy-phenyl)-4-methyl-7,8-dihydro-6H-quinazolin-5-one]	1000 to 10000 nM
COc1cccc(Oc2ccccc2)c1C1CC(=O)c2c(C)nc(N)nc2C1 (stereo not drawn) [Compound 22, 2-amino-7-(2-methoxy-6-phenoxyphenyl)-4-methyl-7,8-dihydroquinazolin-5(6H)-one]	1000 to 10000 nM
Cc1nc(N)nc2c1C(=O)CC(c1ccccc1S(=O)(=O)c1ccccc1)C2 (stereo not drawn) [Compound 23, 2-amino-7-(2-benzenesulfonyl-phenyl)-4-methyl-7,8-dihydro-6H-quinazolin-5-one]	> 10000 nM
Cc1nc(N)nc2c1C(=O)CC(c1cnccc1Oc1ccccc1)C2 (stereo not drawn) [Compound 24, 2-Amino-4-methyl-7-(4-phenoxy-pyridin-3-yl)-7,8-dihydro-6H-quinazolin-5-one]	< 1000 nM
Cc1nc(N)nc2c1C(=O)CC(c1ccccc1-c1ccccn1)C2 (stereo not drawn) [Compound 25, 2-amino-4-methyl-7-(2-pyridin-2-ylphenyl)-7,8-dihydroquinazolin-5(6H)-one]	< 1000 nM
Cc1nc(N)nc2c1C(=O)CC(c1ccccc1-c1cccnc1)C2 (stereo not drawn) [Compound 26, 2-amino-4-methyl-7-(2-pyridin-3-ylphenyl)-7,8-dihydroquinazolin-5(6H)-one]	< 1000 nM
Cc1nc(N)nc2c1C(=O)CC(c1cccc(-c3cccnc3)c1)C2 (stereo not drawn) [Compound 29, 2-amino-4-methyl-7-(3-pyridin-3-ylphenyl)-7,8-dihydroquinazolin-5(6H)-one]	> 10000 nM
Cc1nc(N)nc2c1C(=O)CC(c1cccc(-c3ccncc3)c1)C2 (stereo not drawn) [Compound 30, 2-amino-4-methyl-7-(3-pyridin-4-ylphenyl)-7,8-dihydroquinazolin-5(6H)-one]	> 10000 nM
Cc1nc(N)nc2c1C(=O)CC(c1cccnc1-c1cnccn1)C2 (stereo not drawn) [Compound 34, 2-amino-4-methyl-7-(2-pyrazin-2-ylpyridin-3-yl)-7,8-dihydroquinazolin-5(6H)-one]	1000 to 10000 nM
Cc1nc(N)nc2c1C(=O)CC(c1ccccc1-c1nccs1)C2 (stereo not drawn) [Compound 35, 2-amino-4-methyl-7-[2-(1,3-thiazol-2-yl)phenyl]-7,8-dihydroquinazolin-5(6H)-one]	< 1000 nM
Cc1nc(N)nc2c1C(=O)CC(c1cccnc1-c1nccs1)C2 (stereo not drawn) [Compound 36, 2-amino-4-methyl-7-[2-(1,3-thiazol-2-yl)pyridin-3-yl]-7,8-dihydroquinazolin-5(6H)-one]	1000 to 10000 nM
Cc1nc(N)nc2c1C(=O)CC(c1ccccc1C#Cc1ccccc1)C2 (stereo not drawn) [Compound 37, 2-amino-4-methyl-7-[2-(phenylethynyl)phenyl]-7,8-dihydroquinazolin-5(6H)-one]	> 10000 nM
Cc1nc(N)nc2c1C(=O)CC(c1ccccc1-c1cn[nH]c1)C2 (stereo not drawn) [Compound 39, 2-amino-4-methyl-7-[2-(1H-pyrazol-4-yl)phenyl]-7,8-dihydroquinazolin-5(6H)-one]	1000 to 10000 nM
Cc1nc(N)nc2c1C(=O)CC(c1ccccc1C1=CCCC1)C2 (stereo not drawn) [Compound 40, 2-amino-7-(2-cyclopent-1-en-1-ylphenyl)-4-methyl-7,8-dihydroquinazolin-5(6H)-one]	< 1000 nM
Cc1nc(N)nc2c1C(=O)CC(c1ccccc1-c1cncnc1)C2 (stereo not drawn) [Compound 42, 2-amino-4-methyl-7-(2-pyrimidin-5-ylphenyl)-7,8-dihydroquinazolin-5(6H)-one]	< 1000 nM
